Source: ChEMBL document CHEMBL5370608, “Selective and Bioavailable HDAC6 2-(Difluoromethyl)-1,3,4-oxadiazole Substrate Inhibitors and Modeling of Their Bioactivation Mechanism” (J Med Chem, 2023)
The source made the active and inactive calls. The rule behind the calls is not given here.

What was measured:
[1] = AUC (0 to infinity) in Wistar Han rat at 10 mg/kg, po measured upto 24 hrs by LC-MS/MS analysis; type: ADME, organism-based; set-up: dose 10 mg/kg, time < 24 hrs, route po; details: in vivo
[2] = Half life in Wistar Han rat at 10 mg/kg, po measured upto 24 hrs by LC-MS/MS analysis; type: ADME, organism-based; details: in vivo
[3] = Oral bioavailability in C57/BI mouse at 10 mg/kg measured upto 24 hrs by LC-MS/MS analysis; type: ADME, organism-based; details: in vivo
[4] = Oral bioavailability in C57/BI mouse at 1 mg/kg measured upto 24 hrs by LC-MS/MS analysis; type: ADME, organism-based; details: in vivo
[5] = AUC (0 to infinity) in Wistar Han rat at 1 mg/kg, po measured upto 24 hrs by LC-MS/MS analysis; type: ADME, organism-based; set-up: time < 24 hrs, dose 1 mg/kg, route po; details: in vivo
[6] = target: T1, Protein deacetylase HDAC6 (Homo sapiens, UniProt Q9UBN7); experiment: Inhibition of HDAC6 (unknown origin) incubated for 30 mins
T1 sequence (Q9UBN7 whole entry): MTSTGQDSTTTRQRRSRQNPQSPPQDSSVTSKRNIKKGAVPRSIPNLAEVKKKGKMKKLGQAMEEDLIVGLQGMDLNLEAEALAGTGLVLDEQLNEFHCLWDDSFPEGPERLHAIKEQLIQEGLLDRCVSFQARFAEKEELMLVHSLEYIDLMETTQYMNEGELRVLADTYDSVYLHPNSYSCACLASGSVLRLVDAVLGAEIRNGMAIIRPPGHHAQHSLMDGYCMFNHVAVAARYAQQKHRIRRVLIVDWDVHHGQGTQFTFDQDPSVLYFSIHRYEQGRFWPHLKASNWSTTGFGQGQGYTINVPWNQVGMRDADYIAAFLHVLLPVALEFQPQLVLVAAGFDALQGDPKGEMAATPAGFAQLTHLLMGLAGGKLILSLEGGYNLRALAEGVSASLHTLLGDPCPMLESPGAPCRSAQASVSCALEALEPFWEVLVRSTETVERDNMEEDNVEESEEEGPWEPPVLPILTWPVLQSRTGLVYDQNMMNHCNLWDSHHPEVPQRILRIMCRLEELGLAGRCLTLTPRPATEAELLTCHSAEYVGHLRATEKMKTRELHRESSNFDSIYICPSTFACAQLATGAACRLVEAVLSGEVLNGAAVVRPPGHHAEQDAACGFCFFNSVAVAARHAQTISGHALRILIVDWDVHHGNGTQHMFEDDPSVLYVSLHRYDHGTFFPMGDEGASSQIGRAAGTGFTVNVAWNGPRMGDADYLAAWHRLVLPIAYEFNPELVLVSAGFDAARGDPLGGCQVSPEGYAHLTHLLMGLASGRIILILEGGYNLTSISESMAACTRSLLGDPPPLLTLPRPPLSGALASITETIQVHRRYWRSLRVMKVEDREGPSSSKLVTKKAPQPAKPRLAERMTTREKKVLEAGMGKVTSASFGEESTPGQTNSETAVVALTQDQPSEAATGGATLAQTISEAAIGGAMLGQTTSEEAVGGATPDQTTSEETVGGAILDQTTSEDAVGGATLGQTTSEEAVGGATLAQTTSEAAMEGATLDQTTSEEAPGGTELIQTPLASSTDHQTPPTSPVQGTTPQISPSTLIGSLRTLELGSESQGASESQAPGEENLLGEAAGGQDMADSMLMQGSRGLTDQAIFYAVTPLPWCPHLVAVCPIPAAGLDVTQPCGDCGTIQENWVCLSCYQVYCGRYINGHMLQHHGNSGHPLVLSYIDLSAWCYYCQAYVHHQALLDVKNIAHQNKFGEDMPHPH

[7] = Half life in C57/BI mouse at 1 mg/kg, po measured upto 24 hrs by LC-MS/MS analysis; type: ADME, organism-based; details: in vivo
[8] = target: cAMP and cAMP-inhibited cGMP 3',5'-cyclic phosphodiesterase 10A (Homo sapiens) (UniProt Q9Y233); experiment: Inhibition of PDE10A2 (unknown origin) at 91 uM relative to control
[9] = target: GABA-A receptor; anion channel (Homo sapiens) (UniProt P14867+P47870+P18507+P28472+P48169+Q99928+Q9UN88+P34903+O00591+O14764+Q8N1C3+P18505+P78334+P47869+P31644+Q16445); experiment: Inhibition of GABAA (unknown origin) at 34 uM relative to control; type: protein-complex assay
[10] = AUC (0 to infinity) in C57/BI mouse at 1 mg/kg, po measured upto 24 hrs by LC-MS/MS analysis; type: ADME, organism-based; set-up: time < 24 hrs, dose 1 mg/kg, route po; details: in vivo
[11] = Half life in C57/BI mouse at 0.5 mg/kg, iv measured upto 24 hrs by LC-MS/MS analysis; type: ADME, organism-based; details: in vivo
[12] = tested on: Sodium-dependent noradrenaline transporter; experiment: Inhibition of NET (unknown origin) at 49 uM relative to control; details: Homo sapiens
[13] = target: 3',5'-cyclic-AMP phosphodiesterase 4D (Homo sapiens) (UniProt Q08499); experiment: Inhibition of PDE4D (unknown origin) at 64 uM relative to control
[14] = Plasma protein binding in rat assessed as unbound fraction; type: ADME, cell-free
[15] = target: T1, Protein deacetylase HDAC6; experiment: Inhibition of HDAC6 (unknown origin) incubated for 20 hrs
THP-1 = experiment: Cytotoxicity against human THP-1 cells assessed as reduction in cell viability measured upto 250 uM by alamar blue staining based assay; type: functional

Chain of 3',5'-cyclic-AMP phosphodiesterase 4D (Homo sapiens) (Q08499 whole entry): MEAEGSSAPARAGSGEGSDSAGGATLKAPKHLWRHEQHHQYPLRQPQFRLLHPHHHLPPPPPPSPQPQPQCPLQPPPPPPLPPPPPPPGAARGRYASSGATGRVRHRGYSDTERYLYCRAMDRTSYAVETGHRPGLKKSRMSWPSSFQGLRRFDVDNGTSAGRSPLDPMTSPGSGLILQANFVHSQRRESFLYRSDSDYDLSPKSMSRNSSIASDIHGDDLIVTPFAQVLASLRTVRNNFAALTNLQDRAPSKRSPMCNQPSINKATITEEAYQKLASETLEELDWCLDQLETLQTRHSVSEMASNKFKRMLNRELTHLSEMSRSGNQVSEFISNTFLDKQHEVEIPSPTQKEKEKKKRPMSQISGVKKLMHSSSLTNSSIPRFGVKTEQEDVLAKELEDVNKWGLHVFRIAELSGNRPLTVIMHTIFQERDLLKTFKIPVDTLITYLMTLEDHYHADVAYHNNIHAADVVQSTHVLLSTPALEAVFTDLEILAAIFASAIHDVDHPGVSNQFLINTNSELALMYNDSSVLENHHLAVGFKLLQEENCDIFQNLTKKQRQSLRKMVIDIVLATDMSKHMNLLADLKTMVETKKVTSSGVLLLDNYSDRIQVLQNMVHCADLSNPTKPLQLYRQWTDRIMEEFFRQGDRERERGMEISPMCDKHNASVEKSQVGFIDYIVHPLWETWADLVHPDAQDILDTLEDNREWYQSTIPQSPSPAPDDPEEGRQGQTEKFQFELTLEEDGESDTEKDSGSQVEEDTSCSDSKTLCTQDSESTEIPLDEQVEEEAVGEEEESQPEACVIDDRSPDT
Chain of cAMP and cAMP-inhibited cGMP 3',5'-cyclic phosphodiesterase 10A (Homo sapiens) (Q9Y233 whole entry): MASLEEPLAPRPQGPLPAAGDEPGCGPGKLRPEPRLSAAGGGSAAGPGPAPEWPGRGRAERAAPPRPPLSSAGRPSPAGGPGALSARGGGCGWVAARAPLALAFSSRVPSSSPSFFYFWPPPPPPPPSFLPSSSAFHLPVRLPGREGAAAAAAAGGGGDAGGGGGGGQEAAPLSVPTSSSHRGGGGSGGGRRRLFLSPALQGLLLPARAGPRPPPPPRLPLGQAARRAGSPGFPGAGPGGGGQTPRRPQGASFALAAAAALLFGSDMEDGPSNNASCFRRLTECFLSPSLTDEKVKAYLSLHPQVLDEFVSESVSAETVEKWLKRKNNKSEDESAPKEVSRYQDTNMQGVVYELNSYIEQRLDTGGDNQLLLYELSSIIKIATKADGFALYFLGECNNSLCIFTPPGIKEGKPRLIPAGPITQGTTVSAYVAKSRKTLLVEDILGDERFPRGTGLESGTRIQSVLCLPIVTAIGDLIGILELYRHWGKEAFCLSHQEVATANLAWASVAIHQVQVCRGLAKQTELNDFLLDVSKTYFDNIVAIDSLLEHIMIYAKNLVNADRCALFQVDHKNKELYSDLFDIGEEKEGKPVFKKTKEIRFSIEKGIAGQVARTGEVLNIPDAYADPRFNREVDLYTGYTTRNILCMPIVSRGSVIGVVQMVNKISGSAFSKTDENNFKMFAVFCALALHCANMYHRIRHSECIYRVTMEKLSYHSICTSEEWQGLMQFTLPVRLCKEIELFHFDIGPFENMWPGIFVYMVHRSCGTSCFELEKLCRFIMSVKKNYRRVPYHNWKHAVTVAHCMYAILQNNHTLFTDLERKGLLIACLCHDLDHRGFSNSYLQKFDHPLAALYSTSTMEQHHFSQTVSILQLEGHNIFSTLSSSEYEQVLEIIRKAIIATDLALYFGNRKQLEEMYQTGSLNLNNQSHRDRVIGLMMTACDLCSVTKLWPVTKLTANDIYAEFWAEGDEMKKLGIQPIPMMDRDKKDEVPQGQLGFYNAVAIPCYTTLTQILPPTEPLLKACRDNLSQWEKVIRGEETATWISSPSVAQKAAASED

Structure (SMILES): O=C(NO)c1cnc(NC2(c3ccccc3)CCC(F)(F)CC2)nc1
- AUC(0-inf) [1]: 0.05 µM·h
- half-life [2]: 2.1 h
- bioavailability [3]: 12%

Structure (SMILES): FC(F)c1nnc(-c2ccc(Cn3nnc(-c4ccccn4)n3)nc2)o1
- bioavailability [4]: 110%
- AUC(0-inf) [5]: 15 µM·h
- IC50 [6]: 0.027 µM
- half-life [7]: 5.3 h
- inhibition [8]: Active
- inhibition [9]: Active
- AUC(0-inf) [10]: 21 µM·h
- half-life [11]: 4.7 h
- inhibition [12]: Active
- inhibition [13]: Active
- fraction unbound [14]: 0.38
- IC50 [15]: 0.001 µM
- Activity (THP-1): inactive
